Laboratory results reported in patent US10065942B2, “Crystalline (2S)-3-[(3S,4S)-3-[(1R)-1-hydroxyethyl]-4-(4-methoxy-3-{[1-(5-methylpyridin-2-yl)azetidin-3-yl]oxy}phenyl)-3-methylpyrrolidin-1-yl]-3-oxopropane-1,2-diol” (Eli Lilly and Company, priority 2014, dated 2018).

Tested on: chronic cyclophosphamide (CYP)-induced overactive bladder mouse model
Experiment: Overactive Bladder In Vivo Model (chronic cyclophosphamide-induced OAB)
Conditions: for Mean Voiding Frequency (no./4 hr) / Mean Volume/Void: oral daily, day 8, female C57/Bl6 mice
Experimental: The in vivo effect of PDE4 inhibitors on OAB is studied with a chronic cyclophosphamide (CYP)-induced overactive bladder mouse model adapted from Boudes et al., Neurourol. Urodynam. 2011. In a typical study, female C57/Bl6 mice, approximately 20 grams in body weight (Harlan Laboratories, Inc., Indianapolis, Ind.) are used. Mice are randomized by body weight into groups one day before the start of the study. Mice are individually housed and maintained on a 12 hour light/dark cycle at 22° C. with ad lib access to food (TD 2014 with 0.72% Ca and 0.61% P, 990 IU/g D3, Teklad™, Madison, Wis.) and water. Animals receive cyclophosphamide (dissolved in physiological saline) i.p. administration at 100 mg/kg on days 1, 3, 5, and 7 to chronically induce OAB. The vehicle control group received daily vehicle (HEC 1%/Tween 80 0.25%/Antifoam 0.05%) administered orally. All other groups are administered orally tadalafil at 10 mg/kg in combination with 0.1, 1.0, or 10.0 mg/kg of test compound daily at a volume of 200 μl/mouse. On day 8, mice are housed in urine collection chambers with a filter paper placed underneath chamber. Prior to urine collection, gavages of 1 ml water are given to each mouse. Urine is collected from 6 pm to 10 pm (i.e. for 4 hrs). Gel cups (DietGel™ 76A) are supplied as water source during the 4 hour period. The filter paper is changed every hour. Voiding frequency and volume/void are calculated using Image J software (NIH). Data are statistically analyzed with JMP8® software (Cary, N. C.).
All treatment groups receive a fixed dose of 10 mg/kg of tadalafil.

[1] = Example 2 0.1 mg/kg + tadalafil 10 mg/kg
[2] = Example 2 1.0 mg/kg + tadalafil 10 mg/kg
[3] = Example 2 10.0 mg/kg + tadalafil 10 mg/kg
[4] = given with tadalafil 10 mg/kg, 0.1, 1.0, 10.0 mg/kg oral daily

COc1ccc([C@@H]2CN(C(=O)[C@@H](O)CO)C[C@@]2(C)[C@@H](C)O)cc1OC1CN(c2ccc(C)cn2)C1 [Example 2, (2S)-3-[(3S,4S)-3-[(1R)-1-hydroxyethyl]-4-(4-methoxy-3-{[1-(5-methylpyridin-2-yl)azetidin-3-yl]oxy}phenyl)-3-methylpyrrolidin-1-yl]-3-oxopropane-1,2-diol]
Mean Voiding Frequency (no./4 hr) [1]: 10 no./4 hr
Mean Volume/Void [1]: 47.3 µL
Mean Voiding Frequency (no./4 hr) [2]: 8.61 no./4 hr
Mean Volume/Void [2]: 77.2 µL
Mean Voiding Frequency (no./4 hr) [3]: 8.38 no./4 hr
Mean Volume/Void [3]: 81.9 µL
effect on urinary frequency (in words) [4]: significantly reduces urinary frequency in a dose-dependent fashion
effect on volume/void (in words) [4]: increases of volume/void are also observed in a dose-dependent fashion
